The conditions of series [1]: mouse, in vivo; cited from earlier work.
For series [2], the target named is T1, WT Bcr-Abl (Homo sapiens, UniProt P00519). The following applies: read-out: IC50, Bcr-Abl autophosphorylation and downstream kinase activity; K562 cells; cited from earlier work.
Target sequence in this assay (P00519 with tags, fused parts or gaps): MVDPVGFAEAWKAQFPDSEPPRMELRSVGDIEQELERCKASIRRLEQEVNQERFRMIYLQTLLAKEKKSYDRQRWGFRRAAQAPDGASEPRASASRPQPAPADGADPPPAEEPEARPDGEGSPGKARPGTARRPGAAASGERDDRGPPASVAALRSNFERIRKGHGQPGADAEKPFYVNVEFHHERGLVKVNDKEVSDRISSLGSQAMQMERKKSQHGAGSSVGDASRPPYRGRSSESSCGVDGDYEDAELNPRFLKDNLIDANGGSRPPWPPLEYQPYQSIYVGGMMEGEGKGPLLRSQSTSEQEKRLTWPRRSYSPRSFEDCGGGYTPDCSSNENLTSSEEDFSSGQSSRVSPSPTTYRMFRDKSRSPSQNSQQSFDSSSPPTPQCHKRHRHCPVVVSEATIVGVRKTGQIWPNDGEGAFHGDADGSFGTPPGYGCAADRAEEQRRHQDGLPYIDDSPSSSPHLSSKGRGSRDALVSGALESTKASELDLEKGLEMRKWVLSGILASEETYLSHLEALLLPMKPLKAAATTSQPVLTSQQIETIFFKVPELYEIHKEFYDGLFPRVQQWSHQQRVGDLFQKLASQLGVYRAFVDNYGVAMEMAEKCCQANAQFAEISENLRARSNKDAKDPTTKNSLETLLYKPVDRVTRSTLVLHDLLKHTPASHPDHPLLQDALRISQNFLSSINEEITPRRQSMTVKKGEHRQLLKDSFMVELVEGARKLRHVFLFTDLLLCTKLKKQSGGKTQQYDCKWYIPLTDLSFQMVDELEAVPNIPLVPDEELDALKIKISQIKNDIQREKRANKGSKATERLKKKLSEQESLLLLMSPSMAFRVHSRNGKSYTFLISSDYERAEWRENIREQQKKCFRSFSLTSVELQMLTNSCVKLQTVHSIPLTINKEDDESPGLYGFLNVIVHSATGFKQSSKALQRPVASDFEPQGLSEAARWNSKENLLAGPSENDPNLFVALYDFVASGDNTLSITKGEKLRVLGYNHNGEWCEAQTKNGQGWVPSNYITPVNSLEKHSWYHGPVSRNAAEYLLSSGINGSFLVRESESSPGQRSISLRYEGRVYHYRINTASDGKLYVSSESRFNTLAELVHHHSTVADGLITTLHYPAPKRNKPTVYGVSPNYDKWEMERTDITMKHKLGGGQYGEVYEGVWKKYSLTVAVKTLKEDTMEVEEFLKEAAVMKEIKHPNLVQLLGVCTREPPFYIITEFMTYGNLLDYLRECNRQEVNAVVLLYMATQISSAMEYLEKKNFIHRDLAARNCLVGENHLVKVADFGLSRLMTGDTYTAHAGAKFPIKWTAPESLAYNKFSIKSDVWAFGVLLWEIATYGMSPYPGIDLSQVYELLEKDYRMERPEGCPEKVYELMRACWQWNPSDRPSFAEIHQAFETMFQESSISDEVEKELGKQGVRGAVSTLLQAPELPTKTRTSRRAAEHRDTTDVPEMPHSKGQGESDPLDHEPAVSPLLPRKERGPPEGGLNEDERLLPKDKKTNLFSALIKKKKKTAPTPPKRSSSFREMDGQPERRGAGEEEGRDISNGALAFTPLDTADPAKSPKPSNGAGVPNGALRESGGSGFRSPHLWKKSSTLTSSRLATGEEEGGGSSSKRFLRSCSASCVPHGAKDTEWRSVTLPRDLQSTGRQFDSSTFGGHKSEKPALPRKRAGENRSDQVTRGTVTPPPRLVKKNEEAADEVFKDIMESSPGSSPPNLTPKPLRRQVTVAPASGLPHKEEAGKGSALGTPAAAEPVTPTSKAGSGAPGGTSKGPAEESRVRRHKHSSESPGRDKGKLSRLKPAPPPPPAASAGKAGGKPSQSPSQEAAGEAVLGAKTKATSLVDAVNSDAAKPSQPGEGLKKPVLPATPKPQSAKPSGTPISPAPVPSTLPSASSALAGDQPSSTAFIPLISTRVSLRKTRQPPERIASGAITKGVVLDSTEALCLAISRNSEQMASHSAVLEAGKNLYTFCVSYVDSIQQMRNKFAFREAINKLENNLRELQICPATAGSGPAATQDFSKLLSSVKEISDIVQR
Another series deals with KU812. The following applies: 20 mg/kg/day; cited from earlier work.
Series [3] concerns the target T1, WT Bcr-Abl. The following applies: read-out: IC50, Bcr-Abl autophosphorylation and downstream kinase activity; 293T cells; cited from earlier work.
Target sequence in this assay (P00519 28-1130 limits assumed): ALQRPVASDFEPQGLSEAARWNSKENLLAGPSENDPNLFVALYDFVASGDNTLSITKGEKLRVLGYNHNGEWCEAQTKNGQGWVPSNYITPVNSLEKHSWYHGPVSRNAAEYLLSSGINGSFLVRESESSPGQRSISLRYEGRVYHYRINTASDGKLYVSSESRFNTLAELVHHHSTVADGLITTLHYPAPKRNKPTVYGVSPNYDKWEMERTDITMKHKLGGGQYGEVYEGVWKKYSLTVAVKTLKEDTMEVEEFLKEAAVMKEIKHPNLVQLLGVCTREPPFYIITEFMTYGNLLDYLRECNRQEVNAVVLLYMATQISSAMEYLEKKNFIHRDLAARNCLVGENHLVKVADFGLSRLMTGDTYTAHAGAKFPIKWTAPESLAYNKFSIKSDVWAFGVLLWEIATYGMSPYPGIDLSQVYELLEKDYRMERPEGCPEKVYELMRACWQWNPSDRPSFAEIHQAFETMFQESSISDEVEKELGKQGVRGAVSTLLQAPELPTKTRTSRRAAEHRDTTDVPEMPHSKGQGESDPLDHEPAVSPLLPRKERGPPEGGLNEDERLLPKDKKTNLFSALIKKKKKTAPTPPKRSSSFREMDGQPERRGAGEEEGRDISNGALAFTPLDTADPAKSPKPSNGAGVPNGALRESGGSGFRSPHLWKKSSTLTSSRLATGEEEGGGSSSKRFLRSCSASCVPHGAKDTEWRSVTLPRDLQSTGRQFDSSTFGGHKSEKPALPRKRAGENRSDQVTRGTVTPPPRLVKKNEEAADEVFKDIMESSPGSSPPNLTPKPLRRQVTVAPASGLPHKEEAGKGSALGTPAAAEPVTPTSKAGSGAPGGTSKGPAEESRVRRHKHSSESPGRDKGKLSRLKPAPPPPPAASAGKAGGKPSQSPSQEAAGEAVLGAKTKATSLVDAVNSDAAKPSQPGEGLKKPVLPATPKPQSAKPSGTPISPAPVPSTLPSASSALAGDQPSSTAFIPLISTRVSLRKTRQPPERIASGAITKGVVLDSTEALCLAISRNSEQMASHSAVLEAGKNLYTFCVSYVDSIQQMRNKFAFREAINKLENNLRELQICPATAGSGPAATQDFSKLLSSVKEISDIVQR
Another series has as its target S6K1 (Homo sapiens, UniProt P23443). The following applies: cited from earlier work.
Series [4] deals with voltage-dependent Na+ channels. Conditions: cited from earlier work.
The subject of series [5] is primary melanomas (M715, M711, M741 and M405). Kind of series: Dose response viability assay (CellTiter-Glo) on primary human melanoma cells. Conditions: 72 hr, triplicate. The class given is cell-based. As for the experimental part: (§1) Melanomas and hUCB were treated with 50 μM of cardiac glycosides or DMSO for 72 h in triplicates. Viability was measured with CellTiter-Glo. […] All error bars denote SD.
(§2) In these in vitro assays, cells were treated with various doses of cardiac glycosides or DMSO for 72 hr in triplicate. Viability was measured with CellTiter-Glo.
(§3) Again, cells were treated in vitro with various doses of RO 31-8220 or DMSO for 72 hr in triplicates. Viability was measured with CellTiter-Glo.
For orientation: ATP-based viability assays read luminescence as a measure of living cells.

For another series, the target named is PKCα (Homo sapiens, UniProt P17252). Conditions: cited from earlier work.
Series [6] has as its system JNK, glycogen synthase, MAPK, ERK2. The following applies: rat adipocytes and L6 myotubes; cited from earlier work.
In series [7] the test system is M481 metastatic melanoma cells. Kind of series: M481 melanoma xenograft tumor growth in NSG mice. The class given is in vivo.
Method: M481 metastatic melanoma cells were implanted in s.c. tissue on right flanks of NSG mice. […] Tumors were measured every 2-3 day with calipers.
(FIG. 6A) M481 efficiently metastasizing melanoma cells were implanted in s.c. tissue on right flanks of NSG mice. […] Tumors were measured every 2-3 day with calipers. Mean±SD is reported.
Subcutaneous injections of human melanoma cells were performed in each flank and the interscapular region of NOD.CB17-Prkdcscid Il2rgtm1Wjl/SzJ (NOD/SCID IL2Rγ^null, NSG) mice (Jackson Laboratories) in a final volume of 50 μl.
In these experiments metastatic melanoma cells were implanted in s.c. tissue on right flanks of NSG mice. […] Tumors were measured every 2-3 day with calipers and bioluminescence imaging was performed at day 14.
To address whether inhibition of Lyn kinase can block the ability of melanoma cells to grow in our xenograft model, they performed an in vivo drug treatment. NSG mice were injected with a 100-cell dose of a metastatic melanoma, M481, which expressed a GFP-luciferase construct. […] We tested two different doses, 4 mg/kg body mass/day and 20 mg/kg/day. Control mice were injected with 5% DMSO solution.
For the next series, the target named is MAPKAP-K1b (Homo sapiens, UniProt P51812). Conditions: cited from earlier work.
Sequence of MAPKAP-K1b (P51812 whole entry, species assumed): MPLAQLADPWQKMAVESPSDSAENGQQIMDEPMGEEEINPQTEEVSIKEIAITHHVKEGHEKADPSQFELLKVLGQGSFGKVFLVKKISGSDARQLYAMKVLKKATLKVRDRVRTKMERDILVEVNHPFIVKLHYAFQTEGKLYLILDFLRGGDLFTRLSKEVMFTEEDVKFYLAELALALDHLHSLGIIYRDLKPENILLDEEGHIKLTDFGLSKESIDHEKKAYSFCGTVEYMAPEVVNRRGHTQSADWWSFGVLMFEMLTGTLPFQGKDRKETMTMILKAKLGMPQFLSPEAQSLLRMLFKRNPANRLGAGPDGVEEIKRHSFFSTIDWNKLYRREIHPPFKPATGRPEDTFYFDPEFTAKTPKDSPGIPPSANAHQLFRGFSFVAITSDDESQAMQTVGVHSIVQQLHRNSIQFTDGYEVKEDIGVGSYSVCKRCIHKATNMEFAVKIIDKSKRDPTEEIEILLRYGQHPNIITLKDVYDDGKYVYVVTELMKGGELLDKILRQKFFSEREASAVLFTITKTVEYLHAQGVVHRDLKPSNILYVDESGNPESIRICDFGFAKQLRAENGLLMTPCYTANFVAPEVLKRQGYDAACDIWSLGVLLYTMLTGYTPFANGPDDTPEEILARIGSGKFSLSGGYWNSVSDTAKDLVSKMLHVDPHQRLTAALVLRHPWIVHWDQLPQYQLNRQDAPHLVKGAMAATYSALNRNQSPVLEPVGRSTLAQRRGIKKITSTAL
Series [8] has as its system human melanocytes (hMEL) and human umbilical cord blood cells (hUCB). Here is the method: as §1, §2, §3
The test system of series [9] is M214 metastatic melanoma cells. Format: in vivo, NSG mice. The following applies: digitoxin 0.5 mg/kg/day; dacarbazine 5 mg/kg every other day; alone or in combination.
Method: M214 metastatic melanoma cells were implanted in s.c. tissue on right flanks of NSG mice. When tumors became palpable, mice were randomized to four different treatments. […] Control mice received equivalent volume of DMSO. […] Tumors were measured every 2-3 day with calipers. Mean^±SD is reported (*P<0.05, **P<0.005, ***P<0.0005, ****P<0.0001, ns: not significant; two-tailed Student's t test). […] The statistical significance of differences between mean values was assessed by the Student's t-test.
In these experiments, metastatic melanoma cells were injected subcutaneously in the right flanks of immunocompromised NSG mice. When tumors became palpable, mice were randomized to four different treatments. […] Control mice received equivalent volume of DMSO.
For series [10] the following is noted: in vivo; cited from earlier work.
[11] abbreviates: 72 hr, triplicate, CellTiter-Glo.

Read-outs that look alike come from different tables or passages of the source. A value given as a limit tells only on which side of the number the result lay.

Sequence of S6K1 (P23443 whole entry, species assumed): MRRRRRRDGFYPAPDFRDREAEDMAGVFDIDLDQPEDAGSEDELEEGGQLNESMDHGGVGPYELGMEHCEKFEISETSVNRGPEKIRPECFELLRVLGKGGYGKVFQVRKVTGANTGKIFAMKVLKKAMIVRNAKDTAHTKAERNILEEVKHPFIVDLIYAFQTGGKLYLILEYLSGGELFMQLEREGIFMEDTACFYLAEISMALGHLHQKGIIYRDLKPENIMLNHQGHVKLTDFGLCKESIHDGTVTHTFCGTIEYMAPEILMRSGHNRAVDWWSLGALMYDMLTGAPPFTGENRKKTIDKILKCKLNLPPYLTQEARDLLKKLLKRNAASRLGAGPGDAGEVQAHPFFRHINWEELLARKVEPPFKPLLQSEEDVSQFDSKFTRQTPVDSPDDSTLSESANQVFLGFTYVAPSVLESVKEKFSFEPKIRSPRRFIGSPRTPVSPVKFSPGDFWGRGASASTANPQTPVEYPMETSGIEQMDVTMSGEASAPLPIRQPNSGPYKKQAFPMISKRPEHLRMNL

Broadly, the IC50 is the concentration that gives 50% inhibition. Turning to `Cc1ccc(NC(=O)c2ccc(CN3CC[C@H](N(C)C)C3)c(C(F)(F)F)c2)cc1Nc1nccc(-c2cncnc2)n1` [Bafetinib, bafetinib], in series [1], the “bioavailability value (BA)” value is listed as 32%. For the same compound, the maximal tolerated dose in series [1] was 200 mg/kg/day. The half-inhibitory concentration (IC50) on WT Bcr-Abl [2] is 11 nM; at WT Bcr-Abl [3], 22 nM. Besides, the adverse effects result with KU812 is on record as “without adverse effects”.

On to `Cn1cc(C2=C(c3cn(CCCSC(=N)N)c4ccccc34)C(=O)NC2=O)c2ccccc21` [RO 31-8220], for which the figures for the concentration for half-maximal inhibition (IC50) at S6K1, on PKCα and at MAPKAP-K1b were 38 nM, 33 nM and 3 nM, respectively. For the same compound, the “inhibition of voltage-dependent Na+ channels” value in [4] is “in the micromolar range”. For the same compound, the “toxicity to primary melanomas (viability)” value in series [5] is listed as “toxic to all tested primary melanomas”. Further, the “effect on JNK and glycogen synthase” value in series [6] is given as “Activates”. The “effect on MAPK and ERK2” value in series [6] is reported as “inhibits”. Further, the tumor growth entry in series [7] (RO 31-8220 3 mg/kg i.p. vs DMSO) was “inhibited the growth”. Besides, in series [8] (setting [11]), the “toxicity to normal cells (viability)” value was “not to normal cells”.

`C[C@H]1O[C@@H](O[C@H]2[C@@H](O)C[C@H](O[C@H]3[C@@H](O)C[C@H](O[C@H]4CC[C@@]5(C)[C@H](CC[C@@H]6[C@@H]5CC[C@]5(C)[C@@H](C7=CC(=O)OC7)CC[C@]65O)C4)O[C@@H]3C)O[C@@H]2C)C[C@H](O)[C@@H]1O` [digitoxin]: the “toxicity to primary melanomas (viability)” value in series [5] is on record as “toxic to all tested primary melanomas”. In [9], the “growth of human melanoma xenografts” value is recorded as “slowed the growth”. Besides, the tumor growth result in series [7] (digitoxin 0.5 mg/kg i.p. vs DMSO) is recorded as “inhibited the growth”. The “toxicity to normal cells (viability)” value in series [8] (setting [11]) is given as “not to normal cells”.

With `C[C@H]1O[C@@H](O[C@H]2[C@@H](O)C[C@H](O[C@H]3[C@@H](O)C[C@H](O[C@H]4CC[C@@]5(C)[C@H](CC[C@@H]6[C@@H]5C[C@@H](O)[C@]5(C)[C@@H](C7=CC(=O)OC7)CC[C@]65O)C4)O[C@@H]3C)O[C@@H]2C)C[C@H](O)[C@@H]1O` [digoxin], in [5], the “toxicity to primary melanomas (viability)” value is “toxic to all tested primary melanomas”. Moreover, in [10], the half-life result is on record as “about 36 hours” and the “plasma concentration at which adverse effects are rare” value is under 0.8 µg/L. Besides, the “toxicity to normal cells (viability)” value in series [8] was “not to normal cells”.

Consider `C[C@H]1O[C@@H](O[C@H]2[C@@H](O)C[C@H](O[C@H]3[C@@H](O)C[C@H](O[C@H]4CC[C@@]5(C)[C@H](CC[C@@H]6[C@@H]5CC[C@]5(C)[C@@H](C7=CC(=O)OC7)[C@@H](O)C[C@]65O)C4)O[C@@H]3C)O[C@@H]2C)C[C@H](O)[C@@H]1O` [gitoxin], for which the “toxicity to primary melanomas (viability)” value in [5] is “toxic to all tested primary melanomas”. Moreover, the “toxicity to normal cells (viability)” value in series [8] (setting [11]) is on record as “not to normal cells”.

The values above are taken from patent publication US20140080772A1, “TREATMENTS FOR MELANOMA” (The Board of Regents of the University of Texas System, priority 2012, published 2014).
